Experiment: Active agent release from scaffold or scaffold+matrix in PBS at 37° C.
Assay type: physicochemical
Method: Release of nanoparticle-encapsulated active agent (either pirfenidone or prednisolone) from a matrix and release of active agent from a scaffold was assessed in the same manner. In short, one sample (of either a printed mesh (scaffold) or mesh+gel (scaffold and matrix)) per 1.5 mL eppendorf tube was incubated in 1 mL of PBS at 37° C. under agitation in a heated water bath. The release buffer was completely exchanged at selected time points of T=4 hrs, T=24 hrs, T=48 hrs, T=1 week, T=2 weeks, T=3 weeks, and T=4 weeks, T=6 weeks, T=8 weeks, T=10 weeks, T=12 weeks with samples stored at -20° C. until analysis. Release studies were undertaken for up to 28 days and released active agent concentrations were determined via extrapolation from a standard curve. Blank scaffolds (containing no active agent) were tested and readings were subtracted as an additional background control. Samples containing pirfenidone were analysed at 317 nm and samples containing prednisolone were analysed at 245 nm. Using either 3D drug printing or nanoparticle incorporation, it was possible to achieve a rapid release of active agent in the first 24 hours as well as a continuous release of drug over a 28 day period (FIG. 19).

Row | pirfenidone release when scaffold combined with the hyaluronic acid matrix (higher (50 kDa) molecular weight PCL scaffold, in the presence of the hydrated matrix, FIG. 9B) | pirfenidone release when scaffold combined with the hyaluronic acid matrix (lower molecular weight PCL scaffold, added to the matrix, FIG. 9A) | daily and cumulative prednisolone drug release (from 3D printed PCL scaffolds with no surrounding matrix, FIG. 10) | cumulative prednisolone release (from nanoparticles in a freeze-dried scaffold and hyaluronic acid matrix, FIG. 11) | SMILES
1 | negligible difference | release was slowed |  |  | Cc1ccc(=O)n(-c2ccccc2)c1 [pirfenidone, 5-Methyl-1-phenylpyridin-2-one]
2 |  |  | biphasic release up to 28 days | rapid and sustained release | C[C@]12C=CC(=O)C=C1CC[C@@H]1[C@@H]2[C@@H](O)C[C@@]2(C)[C@H]1CC[C@]2(O)C(=O)CO [prednisolone, 11β-11,17,21-Trihydroxypregna-1,4-diene-3,20-dione]

Reference: patent US20230285280A1, “A DEVICE FOR USE IN THE DELIVERY OF AN ACTIVE AGENT” (ROYAL COLLEGE OF SURGEONS IN IRELAND, priority 2020, published 2023)
